Literature values, collected in patent publication US20250066504A1, “USE OF OREGOVOMAB AND PARP INHIBITORS FOR TREATMENT OF OVARIAN CANCER” (CANARIABIO INC., priority 2022, published 2025).
Where “and” joins values, the source holds several entries; their conditions need not be identical. Equal values may be shown once. Read-outs that look alike come from different tables or passages of the source.

What was measured:
[1] = tested on: patient-derived Ewing sarcoma; details: mouse, in vivo
P-glycoprotein (P-gp) = P-glycoprotein (P-gp) (Homo sapiens, UniProt P08183)
[2] = for grade 3/4 thrombocytopenia rate in the first 30 days: classification tree model
BRCA1-mutant xenograft = details: dosed orally
[3] = tested on: BRCA2-mutant pancreatic cancer (CAPAN-1)
[4] = 300 mg dose
[5] = in vivo
[6] = tested on: patient-derived ovarian and breast cancer xenograft; details: in vivo
[7] = tested on: platinum-sensitive, recurrent ovarian cancer
[8] = tested on: BRCA1-mutant breast cancer (MDA-MB-436)
[9] = not given; remark: listed apart in the source
[10] = tested on: platinum-sensitive recurrent ovarian cancer; details: added to standard chemotherapy, followed by maintenance until progression
[11] = tested on: platinum-sensitive disease; details: added to gemcitabine and carboplatin
[12] = tested on: platinum resistant disease
[13] = human, in vivo
tumor = details: tumor-bearing mice
[14] = 100 times the estimated human dose equivalent (2 mg/60 kg body weight)
[15] = tested on: immune suppressive malignancy; details: immune initiation alone
CA-125-expressing tumors = details: mouse, in vivo
[16] = tested on: adenocarcinomas expressing the CA125 antigen
[17] = tested on: normal human organs and tissues
[18] = normal rats
[19] = 100 times the estimated human dose equivalent (2 mg/60 kg body weight); remark: listed apart in the source
[20] = normal rabbits
[21] = tested on: advanced epithelial ovarian, adnexal, or primary peritoneal cancer, Stage III and Stage IV; details: K-M method
[22] = human, in vivo; remark: listed apart in the source
[23] = lower baseline platelets (<180×10^9/L)
[24] = HRDpos (Within non-gBRCAmut Cohort)
[25] = Non-gBRCAmut Cohort (Regardless of HRD Status)

Sequence of P-glycoprotein (P-gp) (P08183 whole entry): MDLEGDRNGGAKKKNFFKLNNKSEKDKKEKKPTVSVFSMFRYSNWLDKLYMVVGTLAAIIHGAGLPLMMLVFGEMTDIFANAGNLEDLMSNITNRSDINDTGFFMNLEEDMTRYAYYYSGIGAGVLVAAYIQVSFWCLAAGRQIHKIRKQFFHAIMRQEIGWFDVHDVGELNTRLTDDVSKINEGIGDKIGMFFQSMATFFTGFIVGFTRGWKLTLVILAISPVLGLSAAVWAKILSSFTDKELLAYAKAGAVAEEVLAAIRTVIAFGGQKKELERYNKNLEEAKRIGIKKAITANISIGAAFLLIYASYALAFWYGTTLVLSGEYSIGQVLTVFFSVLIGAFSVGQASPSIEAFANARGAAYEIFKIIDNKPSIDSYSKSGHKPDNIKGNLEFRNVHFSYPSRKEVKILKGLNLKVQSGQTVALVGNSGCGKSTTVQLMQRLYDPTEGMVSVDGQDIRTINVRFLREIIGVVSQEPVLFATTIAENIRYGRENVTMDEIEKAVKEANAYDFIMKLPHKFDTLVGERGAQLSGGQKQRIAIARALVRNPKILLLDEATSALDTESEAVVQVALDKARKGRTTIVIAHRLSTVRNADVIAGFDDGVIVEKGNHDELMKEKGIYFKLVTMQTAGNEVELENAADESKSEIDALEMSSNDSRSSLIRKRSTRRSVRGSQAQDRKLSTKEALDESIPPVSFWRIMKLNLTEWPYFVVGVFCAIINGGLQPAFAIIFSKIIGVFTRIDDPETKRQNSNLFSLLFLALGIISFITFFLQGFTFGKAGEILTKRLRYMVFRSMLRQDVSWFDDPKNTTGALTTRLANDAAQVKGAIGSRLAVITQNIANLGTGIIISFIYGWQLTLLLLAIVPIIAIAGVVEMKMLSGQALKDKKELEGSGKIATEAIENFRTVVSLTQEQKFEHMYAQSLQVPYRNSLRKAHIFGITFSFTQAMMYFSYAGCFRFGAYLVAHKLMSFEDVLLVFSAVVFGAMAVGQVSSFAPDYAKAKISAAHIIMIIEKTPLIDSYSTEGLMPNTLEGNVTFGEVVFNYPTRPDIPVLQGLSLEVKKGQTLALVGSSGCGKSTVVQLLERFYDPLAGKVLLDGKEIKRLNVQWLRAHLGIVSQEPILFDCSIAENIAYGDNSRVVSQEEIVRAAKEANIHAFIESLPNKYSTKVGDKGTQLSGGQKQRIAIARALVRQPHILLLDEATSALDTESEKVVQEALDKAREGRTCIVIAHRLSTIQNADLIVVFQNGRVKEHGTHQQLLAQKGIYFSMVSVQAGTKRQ

NC(=O)c1cccc2cn(-c3ccc([C@@H]4CCCNC4)cc3)nc12 [Niraparib]
antitumor activity [1]: strong antitumor activity
substrate for P-gp (P-glycoprotein (P-gp)): relatively poor substrate
grade 3/4 thrombocytopenia rate in the first 30 days ([2]; baseline body weight <77 kg or baseline platelet count <150,000 μL): approximately 30%
grade 3/4 thrombocytopenia rate in the first 30 days ([2]; baseline body weight <77 kg or baseline platelet count <150,000 μL, listed as niraparib): 35.4% and ~30%
incidence of grade 3 or 4 thrombocytopenia in the first 30 days ([2]; baseline body weight ≥77 kg): 14%
incidence of grade 3 or 4 thrombocytopenia in the first 30 days ([2]; body weight <58 kg): 43%
subjects with a dose reduction ([2]; body weight <58 kg): approximately 80%
grade 3/4 thrombocytopenia rate in the first 30 days ([2]; body weight >77 kg and platelet count >150,000 μL): 11.5%
treatment discontinuations ([2]; highest quartile (≥77 kg)): 10%
frequency of thrombocytopenia Grade ≥1 [2, 23]: 76%
frequency of thrombocytopenia Grade ≥3 [2, 23]: 45%
treatment discontinuations ([2]; lower body weight (<58 kg quartile)): 24%
subjects with a dose reduction ([2]; weight greater than or equal to 77 kg): 59%
incidence of MDS/AML (5 of 367): 1.4%
anemia (all grades) (human, in vivo): 49%
constipation (all grades) (human, in vivo): 40%
decreased platelet count (all grades) (human, in vivo): 20%
fatigue (all grades) (human, in vivo): 46%
nausea (all grades) (human, in vivo): 74%
neutropenia (all grades) (human, in vivo): 18%
on-treatment deaths (human, in vivo): no on-treatment deaths
subjects with at least 1 treatment-emergent adverse event (TEAE) (human, in vivo): All 367
thrombocytopenia (all grades) (human, in vivo): 46%
vomiting (all grades) (human, in vivo): 34%
TEAEs leading to dose reduction (overall safety population): 69%
TEAEs leading to treatment discontinuation (overall safety population): 15%
TEAEs leading to treatment interruption (overall safety population): 67%
incidence of Grade 3 or 4 TEAEs (overall safety population): 74%
incidence of serious adverse events (SAEs) (overall safety population): 30%
reduction in tumor weight compared with control (BRCA1-mutant xenograft): > 90%
tumor response (BRCA1-mutant xenograft): tumor regression
antitumor activity [3]: strong antitumor activity
ORR (ovarian cancer; 98 subjects in the HRD-positive cohort, RECIST v1.1, 300 mg once daily): 24%
Estimated median DOR (ovarian cancer; HRD-positive cohort): 8.3 months
new safety signals (ovarian cancer; in vivo): No new safety signals
subjects achieving an overall response (ovarian cancer; primary efficacy population (13 of 47)): 28%
ORR (ovarian cancer; tBRCAm ovarian cancer, platinum-refractory disease (3/16)): 19%
ORR (ovarian cancer; tBRCAm ovarian cancer, platinum-resistant disease (6/21)): 29%
ORR (ovarian cancer; tBRCAm ovarian cancer, platinum-sensitive disease (7/18)): 39%
bone marrow suppression (neutropenia, thrombocytopenia, and anemia), subjects [4]: 20-40%
hypertension/hypertensive crisis, subjects ([4]; treatment for up to two years): 9%
effect of food on absorption [5]: does not significantly affect
response in patient-derived xenograft models [6]: demonstrated response in both BRCAmut and BRCA wild-type tumors
HR (niraparib:placebo) [7, 24]: 0.38
Median PFS [7, 24]: 12.9 months
HR (niraparib:placebo) [7, 25]: 0.45
Median PFS [7, 25]: 9.3 months
Median PFS ([7]; gBRCAmut Cohort, 300 mg QD): 21.0 months
HR (niraparib:placebo) ([7]; gBRCAmut Cohort, stratified Cox proportional hazards model): 0.27
efficacy at the reduced dose ([7]; retrospective analyses from NOVA): did not compromise efficacy
HR ([7]; subjects with HRDneg tumors): 0.58
Median PFS ([7]; subjects with HRDneg tumors): 6.9 months
antitumor activity [8]: strong antitumor activity
correlation between exposure level (plasma concentration) and QTc changes (ΔQTcF) ([9]; in vivo): no correlation
clinically significant abnormal ECG changes, including QTc interval prolongation, attributed to niraparib ([9]; n=26): no reports
QT interval ([9]; therapeutic dose): did not prolong
synthetic lethality (cells with HRD; cells with HRD): induce synthetic lethality
effect on normal DNA repair mechanisms (cells with HRD; pre-clinical models): inhibit normal DNA repair mechanisms

bevacizumab
median overall survival [10]: improved the median overall survival
OS [11]: no difference in OS
PFS [11]: improved PFS
PFS ([12]; added to pegylated liposomal doxorubicin, weekly paclitaxel, or topotecan): improved PFS
OS ([12]; added to single agent chemotherapy): not OS

Oregovomab
apparent terminal half-life (t1/2z) [13]: around 33 hours
clearance on repeat administration [13]: accelerated
dose of the radiotracer eliminated in the urine [13]: less than 50%
mean residence time (MRT) [13]: about 45 hours
plasma clearance [13]: around 110 mL/minute
cellular responses (tumor): evident
humoral response (tumor): strong humoral response
survival (tumor; compared to controls): increase in survival
tumor size (tumor; compared to controls): decrease in tumor size
affinity of binding to CA125 (CA125): 1.16e+10 M⁻¹
binding force to cancer antigen 125 (CA-125) (CA125; during blood circulation): less than nano units
acute toxicity [14]: lack of significant acute toxicity
effect on the clinical course of disease [15]: insufficient to alter the clinical course of disease
ascites production (CA-125-expressing tumors): inhibited ascites production
survival (CA-125-expressing tumors): long-term survival
tumor size (CA-125-expressing tumors): reduced tumor size
binding to adenocarcinomas expressing the CA125 antigen [16]: selective binding
cross-reactivity with selected normal human organs and tissues [17]: does not show any significant cross-reactivity
humoral response [18]: strong humoral response
acute toxicity [19]: lack of significant acute toxicity
humoral response [20]: strong humoral response

paclitaxel/carboplatin
OS (median) [21]: 43.2 months
PFS (median) [21]: 12.2 months
time to clinical progression (TTCP) (median) [21]: 13.6 months

O=C(c1cc(Cc2n[nH]c(=O)c3ccccc23)ccc1F)N1CCN(C(=O)C2CC2)CC1 [olaparib]
myelodysplastic syndrome (MDS) and acute myeloid leukemia (AML) [22]: have been observed
